Test results: US20050239784A1 (priority 2002, published 2005)
Values after ≈ are worked out from the molar mass of the structure shown. Read-outs that look alike come from different tables or passages of the source.

Columns and labels:
CDC25B = molecular target: T1, CDC25B (Homo sapiens, UniProt P30305); test: biochemical
T1 sequence (P30305 1-580): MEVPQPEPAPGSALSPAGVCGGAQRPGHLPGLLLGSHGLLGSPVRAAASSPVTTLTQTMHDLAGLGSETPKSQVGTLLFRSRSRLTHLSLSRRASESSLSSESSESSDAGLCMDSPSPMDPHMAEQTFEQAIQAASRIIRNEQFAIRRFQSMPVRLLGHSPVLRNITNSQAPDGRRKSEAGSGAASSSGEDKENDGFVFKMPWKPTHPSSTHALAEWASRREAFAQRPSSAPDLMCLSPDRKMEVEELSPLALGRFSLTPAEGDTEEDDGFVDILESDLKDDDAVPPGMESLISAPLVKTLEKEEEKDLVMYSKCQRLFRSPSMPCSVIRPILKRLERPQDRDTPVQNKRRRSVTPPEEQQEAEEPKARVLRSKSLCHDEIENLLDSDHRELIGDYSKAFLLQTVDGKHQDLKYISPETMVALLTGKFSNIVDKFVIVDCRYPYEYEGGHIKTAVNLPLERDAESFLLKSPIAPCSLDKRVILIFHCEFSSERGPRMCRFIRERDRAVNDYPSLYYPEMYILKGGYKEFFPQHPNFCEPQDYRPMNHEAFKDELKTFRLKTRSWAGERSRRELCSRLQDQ

CDK4 = CDK4 (Homo sapiens, UniProt P11802); test: biochemical
AKT3 [1] = molecular target: T2, AKT3 (Homo sapiens, UniProt Q9Y243); test: cell-based
Target sequence in this assay (Q9Y243 whole entry): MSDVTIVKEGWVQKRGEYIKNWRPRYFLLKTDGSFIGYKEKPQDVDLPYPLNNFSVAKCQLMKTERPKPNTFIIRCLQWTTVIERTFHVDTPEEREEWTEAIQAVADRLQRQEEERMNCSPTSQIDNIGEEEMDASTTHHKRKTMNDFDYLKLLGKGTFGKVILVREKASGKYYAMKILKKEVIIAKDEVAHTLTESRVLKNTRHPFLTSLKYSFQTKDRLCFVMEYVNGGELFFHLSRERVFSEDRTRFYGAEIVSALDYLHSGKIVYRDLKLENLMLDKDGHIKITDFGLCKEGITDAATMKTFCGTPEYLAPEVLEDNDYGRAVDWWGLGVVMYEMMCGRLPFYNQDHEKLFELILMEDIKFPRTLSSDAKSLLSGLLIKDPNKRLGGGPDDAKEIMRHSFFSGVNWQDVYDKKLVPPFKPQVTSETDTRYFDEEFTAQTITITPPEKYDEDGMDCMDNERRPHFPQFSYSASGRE

physchem = details: pH 7.4, aqueous buffer, kinetic from dmso stock
AKT3 [2] = molecular target: T2, AKT3; test: biochemical
Target sequence in this assay (Q9Y243 whole entry, species assumed): as the sequence (Q9Y243 whole entry) above

A2780 cells = test: Cytotox survival of A2780 cells after 3 days; type: cell-based; details: for IC50: Homo sapiens, A2780, 72 h
Procedure: In an alternative assay, the growth inhibitory effect of the compounds was tested on the ovarian carcinoma cell line A2780 using art known cytotoxicity assays such as LIVE/DEAD (Molecular Probes) MTT.

[3] = CDC25B WT (Ex. C.5): pIC50 values
[4] = CDK4 SPA (Ex. C.1): pIC50 values
[5] = AKT cel (Ex. C.6): pIC50 values, MDA-MB 231 cells, phosphorylated MAPK read-out
[6] = AKT3 pep. (Ex. C.3): pIC50 values
[7] = A2780 cells, 3 days, read-out: Cytotox survival of A2780 cells after 3 days - pIC50 values (converted)
[8] = read-out: Cytotox survival of A2780 cells after 3 days - pIC50 values, A2780 cells, 3 days (converted)
[9] = read-out: CDC25B WT (Ex. C.5): pIC50 values (converted)
[10] = read-out: CDK4 SPA (Ex. C.1): pIC50 values (converted)
[11] = read-out: AKT cel (Ex. C.6): pIC50 values (converted)
[12] = read-out: AKT3 pep. (Ex. C.3): pIC50 values (converted)

Sequence of CDK4 (P11802 whole entry, species assumed): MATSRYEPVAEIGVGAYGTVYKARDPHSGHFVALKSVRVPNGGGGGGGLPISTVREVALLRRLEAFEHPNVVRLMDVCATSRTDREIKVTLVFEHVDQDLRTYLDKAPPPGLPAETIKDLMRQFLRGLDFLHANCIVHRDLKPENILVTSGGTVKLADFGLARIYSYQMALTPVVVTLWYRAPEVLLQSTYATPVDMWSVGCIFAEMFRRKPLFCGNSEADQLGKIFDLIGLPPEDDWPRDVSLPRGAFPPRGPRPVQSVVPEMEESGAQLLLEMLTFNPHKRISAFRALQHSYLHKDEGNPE
Sequence of CDK4 (P24385 whole entry partner, species assumed): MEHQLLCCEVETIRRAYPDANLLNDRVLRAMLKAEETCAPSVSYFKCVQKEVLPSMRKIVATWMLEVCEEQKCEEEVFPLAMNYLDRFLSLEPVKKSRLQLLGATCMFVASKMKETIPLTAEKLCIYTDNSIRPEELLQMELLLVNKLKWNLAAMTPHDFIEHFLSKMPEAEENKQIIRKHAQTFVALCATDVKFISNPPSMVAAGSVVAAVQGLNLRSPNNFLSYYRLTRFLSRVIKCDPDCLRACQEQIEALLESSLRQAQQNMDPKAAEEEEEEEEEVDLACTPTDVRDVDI

Compound | IC50 (CDC25B; [3]) | IC50 (CDK4; [4]) | IC50 (AKT3 [1]; [5]) | solubility (physchem) | IC50 (AKT3 [2]; [6]) | IC50 (A2780 cells; [7]) | IC50 (A2780 cells; [8]) | IC50 (CDC25B; [9]) | IC50 (CDK4; [10]) | IC50 (AKT3 [1]; [11]) | IC50 (AKT3 [2]; [12]) | Cytotox survival of A2780 cells after 3 days - pIC50 values (A2780 cells; A2780 cells, 3 days)
CC(C)n1nc(-c2ccc(CN3CCN(S(N)(=O)=O)CC3)cc2)nc2c(=O)n(C)c(=O)nc1-2 [Compound 102] | 0.0365 µM | 0.0798 µM | > 3.02 µM | > 1800 µM | 0.172 µM | 0.912 µM |  |  |  |  |  | 
Cn1c(=O)nc2n(C3CCNCC3)nc(-c3ccc(CCCN4CCCCC4)cc3)nc-2c1=O [Compound 155] | 0.0369 µM | 0.0726 µM | 0.469 µM |  | 0.232 µM |  | 0.177 µM |  |  |  |  | 
CC(C)n1nc(-c2ccc(OCCN3CCN(S(=O)(=O)N(C)C)CC3)cc2)nc2c(=O)n(C)c(=O)nc1-2 [Compound 79] |  |  |  | 160 to 1800 µM (≈ 85.2 to 959 µg/mL) |  |  | 0.513 µM | 0.0262 µM | 0.404 µM | ≥ 3 µM | 0.282 µM | 
CC(C)n1nc(-c2ccc(OS(=O)(=O)N(C)C)cc2)nc2c(=O)n(C)c(=O)nc1-2 [Compound 87] | 0.0483 µM | 0.274 µM | > 1 µM | 160 to 1800 µM (≈ 67.3 to 757 µg/mL) | 0.41 µM |  | 0.198 µM |  |  |  |  | 
COc1cc(-c2nc3c(=O)n(C)c(=O)nc-3n(C(C)C)n2)cc(OC)c1OCCN(C)C1CCNCC1 [Compound 105] |  |  |  | > 1800 µM |  |  | < 3.01 µM | 0.0356 µM | 0.153 µM | > 3.02 µM | 0.138 µM | 
CC(C)n1nc(-c2ccc(OCCNS(=O)(=O)N(C)C)cc2)nc2c(=O)n(C)c(=O)nc1-2 [Compound 109] |  |  |  | 160 to 1800 µM (≈ 74.2 to 834 µg/mL) |  |  | 0.594 µM |  | 0.166 µM | > 3.02 µM | 0.155 µM | 
CC(C)n1nc(-c2ccc(OCCN(C)S(=O)(=O)N(C)C)cc2)nc2c(=O)n(C)c(=O)nc1-2 [Compound 95] |  |  |  | 160 to 1800 µM (≈ 76.4 to 860 µg/mL) |  |  | 0.481 µM | 0.0414 µM | 0.321 µM | > 3 µM | 0.19 µM | 
CC(C)n1nc(-c2ccc(CN(C)CCO)cc2)nc2c(=O)n(C)c(=O)nc1-2 [Compound 111] | 0.031 µM | 0.126 µM | 0.791 µM | > 1800 µM | 0.161 µM | 0.157 µM |  |  |  |  |  | 
CC(C)n1nc(-c2ccc(OCCN)cc2)nc2c(=O)n(C)c(=O)nc1-2 [Compound 101] | 0.0535 µM | 0.23 µM | 0.513 µM | > 1800 µM | 0.232 µM | 0.579 µM |  |  |  |  |  | 
CC(C)n1nc(-c2ccc(OCCCN3CCOCC3)cc2)nc2c(=O)n(C)c(=O)nc1-2 [Compound 84] | 0.0383 µM | 0.586 µM | > 1 µM | > 1800 µM | 0.28 µM | 0.216 µM |  |  |  |  |  | 
CC(C)n1nc(-c2ccc(OCCN3CCNCC3)c(Cl)c2)nc2c(=O)n(C)c(=O)nc1-2 [Compound 104] |  |  |  | > 1800 µM |  |  | 0.214 µM | 0.0302 µM | 0.128 µM | 0.726 µM | 0.121 µM | 
COc1cc(-c2nc3c(=O)n(C)c(=O)nc-3n(C(C)C)n2)cc(OC)c1OCCN1CCN(C(=O)OC(C)(C)C)CC1 [Compound 89] |  |  |  | > 1800 µM |  |  | 0.527 µM | 0.0355 µM | 0.506 µM | > 1 µM | 0.352 µM | 
COc1cc(-c2nc3c(=O)n(C)c(=O)nc-3n(C3CCNCC3)n2)ccc1OCCN1CCCCC1 [Compound 152] |  |  |  |  |  |  | 0.63 µM | 0.0254 µM | 0.187 µM | ≥ 3 µM | 0.275 µM | 
COc1cc(-c2nc3c(=O)n(C)c(=O)nc-3n(C(C)C)n2)cc(OC)c1OCCN1CCN(C)CC1 [Compound 85] |  |  |  | > 1800 µM |  |  | 0.228 µM | 0.0484 µM | 0.322 µM | > 1 µM | 0.345 µM | 
COc1cc(-c2nc3c(=O)n(C)c(=O)nc-3n(C(C)C)n2)ccc1OCCN1CCCCC1 [Compound 78] |  |  |  | > 1800 µM |  |  | 0.269 µM | 0.044 µM | 0.513 µM | 0.301 µM | 0.262 µM | 
CC(C)n1nc(-c2ccc(OCCN3CCCCC3)cc2)nc2c(=O)n(C)c(=O)nc1-2 [Compound 94] |  |  |  | > 1800 µM |  |  | 0.163 µM | 0.0364 µM | 0.173 µM |  | 0.165 µM | 

Compound | IC50 (CDC25B; [3]) | IC50 (CDK4; [4]) | IC50 (AKT3 [1]; [5]) | solubility (physchem) | IC50 (AKT3 [2]; [6]) | IC50 (A2780 cells; [7]) | IC50 (A2780 cells; [8]) | IC50 (CDC25B; [9]) | IC50 (CDK4; [10]) | IC50 (AKT3 [1]; [11]) | IC50 (AKT3 [2]; [12]) | Cytotox survival of A2780 cells after 3 days - pIC50 values (A2780 cells; A2780 cells, 3 days)
COc1cc(-c2nc3c(=O)n(C)c(=O)nc-3n(C(C)C)n2)cc(OC)c1OCCN1CCCCC1 [Compound 106] |  |  |  | > 1800 µM |  |  |  | 0.0333 µM | 0.142 µM | > 3.02 µM | 0.117 µM | 6.074
CC(C)n1nc(-c2ccc(OCCN3CCNCC3)cc2)nc2c(=O)n(C)c(=O)nc1-2 [Compound 82] |  |  |  | > 1800 µM |  |  | 0.375 µM | 0.0502 µM | 0.3 µM | 0.216 µM | 0.339 µM | 
CC(C)n1nc(-c2ccc(CN3CCN(S(=O)(=O)N(C)C)CC3)cc2)nc2c(=O)n(C)c(=O)nc1-2 [Compound 103] |  |  |  | 160 to 1800 µM (≈ 80.4 to 905 µg/mL) |  |  | 0.425 µM | 0.0226 µM | 0.357 µM | > 3.02 µM | 0.129 µM | 
CC(C)n1nc(-c2ccc(OCCN3CCN(C(=O)OC(C)(C)C)CC3)cc2)nc2c(=O)n(C)c(=O)nc1-2 [Compound 80] |  |  |  | 160 to 1800 µM (≈ 84.1 to 946 µg/mL) |  |  | 0.39 µM | 0.0324 µM | 0.372 µM | > 0.3 µM | 0.395 µM | 
CC(C)n1nc(-c2ccc(CNC3CCN(S(=O)(=O)N(C)C)CC3)cc2)nc2c(=O)n(C)c(=O)nc1-2 [Compound 99] |  |  |  | > 1800 µM |  |  | 0.12 µM | 0.0303 µM | 0.141 µM | 0.432 µM | 0.17 µM | 
COCCNCc1ccc(-c2nc3c(=O)n(C)c(=O)nc-3n(C(C)C)n2)cc1 [Compound 100] | 0.0499 µM | 0.157 µM | 0.407 µM | > 1800 µM | 0.178 µM | 0.246 µM |  |  |  |  |  | 
COc1cc(-c2nc3c(=O)n(C)c(=O)nc-3n(C(C)C)n2)cc(OC)c1OCCN1CCN(S(N)(=O)=O)CC1 [Compound 96] |  |  |  | > 1800 µM |  |  | 0.492 µM | 0.045 µM | 0.205 µM | > 3 µM | 0.175 µM | 
CC(C)n1nc(-c2ccc(CNCCc3cccnc3)cc2)nc2c(=O)n(C)c(=O)nc1-2 [Compound 93] | 0.0491 µM | 0.193 µM | > 1 µM | > 1800 µM | 0.279 µM | 0.272 µM |  |  |  |  |  | 
Cn1c(=O)nc2n(C3CCCC3)nc(-c3ccc(CN4CCNCC4)cc3)nc-2c1=O [Compound 153] |  |  |  | > 1800 µM |  |  | 0.181 µM | 0.046 µM | 0.369 µM | 0.495 µM | 0.335 µM | 
CC(C)n1nc(-c2ccc(OCCCN3CCCCC3)cc2)nc2c(=O)n(C)c(=O)nc1-2 [Compound 90] |  |  |  |  |  |  |  | 0.0279 µM |  |  | 0.181 µM | 6.842
CC(C)n1nc(-c2ccc(CN(C)C3CCN(S(=O)(=O)N(C)C)CC3)cc2)nc2c(=O)n(C)c(=O)nc1-2 [Compound 113] |  |  |  | > 1800 µM |  |  | 0.22 µM | 0.119 µM | 0.151 µM | > 3.02 µM | 0.184 µM | 
CC(C)n1nc(-c2ccc(OCCN3CCOCC3)c(Cl)c2)nc2c(=O)n(C)c(=O)nc1-2 [Compound 74] |  | 0.161 µM |  | 160 to 1800 µM (≈ 73.7 to 830 µg/mL) | 0.111 µM | 0.19 µM |  |  |  |  |  | 
COc1cc(-c2nc3c(=O)n(C)c(=O)nc-3n(C(C)C)n2)cc(OC)c1OCCN1CCCCC1 [Compound 77] |  |  |  |  |  |  |  | 0.0433 µM | 0.293 µM | > 1 µM | 0.24 µM | 6.785
CC(C)n1nc(-c2ccc(OCCN3CCN(C)CC3)cc2)nc2c(=O)n(C)c(=O)nc1-2 [Compound 97] |  |  |  | > 1800 µM |  |  | 0.292 µM | 0.0427 µM | 0.164 µM | > 3 µM | 0.198 µM | 
CC(C)n1nc(-c2ccc(OCCN3CCCCC3)c(Cl)c2)nc2c(=O)n(C)c(=O)nc1-2 [Compound 88] |  |  |  | 160 to 1800 µM (≈ 73.4 to 826 µg/mL) |  |  | 0.168 µM | 0.0258 µM | 0.267 µM | > 1 µM | 0.239 µM | 
